Test results reported in patent publication US20250051263A1, “NOVEL IONIZABLE LIPIDS AND LIPID NANOPARTICLES AND METHODS OF USING THE SAME” (Sail Biomedicines, Inc., priority 2021, published 2025).

Assays:
Balb/c mice = test: EPO levels in plasma by EPO MSD kit after IV injection of EPO mRNA LNP; type: in vivo
Procedure: 8-9 week old female Balb/c mice are utilized for bioluminescence-based ionizable lipid screening efforts. Mice are obtained from Jackson Laboratories (JAX Stock: 000651) and allowed to acclimate for one week prior to manipulations. Animals are placed under a heat lamp for a few minutes before introducing them to a restraining chamber. The tail is wiped with alcohol pads (Fisher Scientific) and 100 μL of a lipid nanoparticle composition descrbed above containing 10 ug total mRNA (5 ug Fluc+5 ug EPO) is injected intravenously using a 29 G insulin syringe (Covidien). Any resulting bleeding is stemmed using a sterile gauze pad (Fisher Scientific) and animals are placed back into their home cage. 4-6 hours post-dose, animals are injected with 200 μL of 15 mg/mL D-Luciferin (GoldBio) and placed in an isoflurane induction chamber set to deliver 2.5% isoflurane delivered at an oxygen flow rate of 1-2 liters per min. After 5 minutes of isoflurane exposure, mice are placed in set nose cones inside the IVIS Lumina LT imager (PerkinElmer). LivingImage software is utilized for imaging. Whole body bio-luminescence is captured at auto-exposure after which animals are removed from the IVIS and placed into a CO2 chamber for euthanasia. Cardiac puncture is performed on each animal after placing it in dorsal recumbency, and blood collection is performed using a 25 G insulin syringe (BD). Blood is collected in Lithium-Heparin coated tubes (Fisher Scientific) and immediately placed on ice. Once all blood samples are collected, tubes are spun at 2000 G for 10 minutes using a tabletop centrifuge and plasma is aliquoted into individual Eppendorf tubes (Fisher Scientific) and stored at −80 C for subsequent EPO quantification. EPO levels in plasma are determined using EPO MSD kit (Meso Scale Diagnostics).
8-9 week old female Balb/c mice were utilized for bioluminescence-based ionizable lipid screening efforts. Mice were obtained from Jackson Laboratories (JAX Stock: 000651) and allowed to acclimate for one week prior to manipulations. Animals were placed under a heat lamp for a few minutes before introducing them to a restraining chamber. The tail was wiped with alcohol pads (Fisher Scientific) and, for each LNP composition descrbed above, 100 μL of a lipid nanoparticle composition descrbed above containing 10 μg total mRNA (5 μg Fluc+5 μg EPO, 5 μg Fluc+5 μg Cre, or 5 μg EGFP) was injected intravenously using a 29 G insulin syringe (Covidien).
4-6 hours post-dose, animals were injected with 200 μL of 15 mg/mL D-Luciferin (GoldBio), and placed in set nose cones inside the IVIS Lumina LT imager (PerkinElmer). LivingImage software was utilized for imaging. Whole body bio-luminescence was captured at auto-exposure after which animals are removed from the IVIS and placed into a CO2 chamber for euthanasia. Cardiac puncture was performed on each animal after placing it in dorsal recumbency, and blood collection was performed using a 25 G insulin syringe (BD). Once all blood samples were collected, tubes are spun at 2000 G for 10 minutes using a tabletop centrifuge and plasma was aliquoted into individual Eppendorf tubes (Fisher Scientific) and stored at −80° C. for subsequent EPO quantification. EPO levels in plasma were determined using EPO MSD kit (Meso Scale Diagnostics).

[1] = TNS (pKa) assay, apparent LNP pKa; type: physicochemical; conditions: for pKa (TNS): Example 5 LNP lipid:DOPE:Plant Cholesterol:DMPE-PEG2k 35:16:46.5:2.5, FLUC/EPO 1:1 mRNA, N:P 6:1
Procedure: (protocol adapted from: A Novel Amino Lipid Series for mRNA Delivery: Improved Endosomal Escape and Sustained Pharmacology and Safety in Non-human Primates, Sabnis, Staci et al., Molecular Therapy, Volume 26, Issue 6, 1509-1519) 20 buffers (10 mM sodium phosphate, 10 mM sodium borate, 10 mM sodium citrate, and 150 mM sodium chloride, in Distilled Water) of unique pH values ranging from 3.0-12.0 were prepared using 1M sodium hydroxide and 1M hydrochloric acid. 3.25 uL of LNPs (0.04 mg/mL mRNA, in PBS) were incubated with 2 μL of TNS reagent (0.3 mM, in DMSO) and 90 μL of buffer for each pH value (described above) in a 96-well black-walled plate. Each pH condition was performed in triplicate wells. The TNS fluorescence was measured using a Biotek Cytation Plate reader at excitation/emission wavelengths of 321/445 nm. The fluorescence values were then plotted and fit using a 4-parameter sigmoid curve. From the fit, the pH value yielding the half-maximal fluorescence was calculated and reported as the apparent LNP pKa value.
For pKa measurement, a […] assay was conducted according to those described in Sabnis et al., Molecular Therapy, 26(6):1509-19), which is incorporated herein by reference in its entirety. Briefly, 20 buffers (10 mM sodium phosphate, 10 mM sodium borate, 10 mM sodium citrate, and 150 mM sodium chloride, in distilled Water) of unique pH values ranging from 3.0-12.0 were prepared using 1M sodium hydroxide and 1M hydrochloric acid. 3.25 μL of a LNP composition (0.04 mg/mL mRNA, in PBS) was incubated with 2 μL of TNS reagent (0.3 mM, in DMSO) and 90 μL of buffer for each pH value (described above) in a 96-well black-walled plate. Each pH condition was performed in triplicate wells. The TNS fluorescence was measured using a Biotek Cytation Plate reader at excitation/emission wavelengths of 321/445 nm. The fluorescence values were then plotted and fit using a 4-parameter sigmoid curve. From the fit, the pH value yielding the half-maximal fluorescence was calculated and reported as the apparent LNP pKa value.

[2] = mRNA encapsulation efficiency, Quant-iT RiboGreen RNA Assay; type: physicochemical; conditions: LNP ionizable lipid:DSPC:Plant Chol.:DMPE-PEG2k 50:10:38.5:1.5
[3] = Example 5 LNP (DOPE 35:16:46.5:2.5), 5 μg FLUC + 5 μg EPO
[4] = LNP lipid:DSPC:Plant Chol.:DMPE-PEG2k 50:10:38.5:1.5, 5 ug Fluc+5 ug EPO mRNA
[5] = LNP lipid:DOPE:Plant Chol.:DMPE-PEG2k 35:16:46.5:2.5 (Table 1), 5 ug Fluc+5 ug EPO mRNA
[6] = LNP ionizable lipid:DOPE:Plant Chol.:DMPE-PEG2k 35:16:46.5:2.5 (Table 1)
[7] = LNP ionizable lipid:DSPC:Plant Chol.:DMPE-PEG2k 50:10:38.5:1.5

With `CCCCCCCCCCCOC(=O)CCCCCN(CCCCCCCC(=O)OC(CCCCCCCC)CCCCCCCC)CCOC(=O)OCCN(CCCCCCCC(=O)OC(CCCCCCCC)CCCCCCCC)CCCCCC(=O)OCCCCCCCCCCC` [Compound 2218, 1-octylnonyl 8-[2-[2-[[8-(1-octylnonoxy)-8-oxo-octyl]-(6-oxo-6-undecoxy-hexyl)amino]ethoxycarbonyloxy]ethyl-(6-oxo-6-undecoxy-hexyl)amino]octanoate] the hEPO (Balb/c mice; [3]) was 9.6E+01, the hEPO (Balb/c mice; [4]) was 8.40E+01 and the “pKa (TNS)” value [1] was 4.34. For the same compound, the “% EE” value [2] was 86.5%.
For `CCCCCCCCCCCOC(=O)CCCCCN(CCCCCCCC(=O)OCCCC(CCCCC)CCCCC)CCN1CCN(CCN(CCCCCCCC(=O)OCCCC(CCCCC)CCCCC)CCCCCC(=O)OCCCCCCCCCCC)CC1` [Compound 2397, 4-pentylnonyl 8-[2-[4-[2-[[8-oxo-8-(4-pentylnonoxy)octyl]-(6-oxo-6-undecoxy-hexyl)amino]ethyl]piperazin-1-yl]ethyl-(6-oxo-6-undecoxy-hexyl)amino]octanoate], the hEPO (Balb/c mice; [3]) was 1.5E+06 and the “pKa (TNS)” value [1] was 6.44.
With `C=C(CN(CCCCCCCC(=O)OC(CCCCCCCC)CCCCCCCC)CCCCCC(=O)OCCCCCCCCCCC)CN(CCCCCCCC(=O)OC(CCCCCCCC)CCCCCCCC)CCCCCC(=O)OCCCCCCCCCCC` [Compound 2253, 1-octylnonyl 8-[2-[[[8-(1-octylnonoxy)-8-oxo-octyl]-(6-oxo-6-undecoxy-hexyl)amino]methyl]allyl-(6-oxo-6-undecoxy-hexyl)amino]octanoate] the hEPO (Balb/c mice; [3]) was 8.9E+01, the hEPO (Balb/c mice; [5]) was 8.89E+01 and the hEPO (Balb/c mice; [4]) was 8.89E+01. The “pKa (TNS)” value [1] was 3.66, the pKa [1, 6] was 3.66 and the pKa [1, 7] was 3.48. For the same compound, the “% EE” value [2] was 27.3%.
For `CCCCCCCCCCCOC(=O)CCCCCN(CCCCCCCC(=O)OC(CCCCCCCC)CCCCCCCC)CCNC(=O)CC(=O)NCCN(CCCCCCCC(=O)OC(CCCCCCCC)CCCCCCCC)CCCCCC(=O)OCCCCCCCCCCC` [Compound 2220, 1-octylnonyl 8-[2-[[3-[2-[[8-(1-octylnonoxy)-8-oxo-octyl]-(6-oxo-6-undecoxy-hexyl)amino]ethylamino]-3-oxo-propanoyl]amino]ethyl-(6-oxo-6-undecoxy-hexyl)amino]octanoate], the hEPO (Balb/c mice; [3]) was 7.1E+05, the hEPO (Balb/c mice; [4]) was 6.99E+05 and the “pKa (TNS)” value [1] was 6.02. The “% EE” value [2] was 91%.
With `CCCCCCCCCCCOC(=O)CCCCCN(CCCCCCCC(=O)OC(CCCCCCCC)CCCCCCCC)CCCNC(=O)CN(CC(=O)NCCCN(CCCCCCCC(=O)OC(CCCCCCCC)CCCCCCCC)CCCCCC(=O)OCCCCCCCCCCC)C(=O)CCN1CCCC1` [Compound 2353, 1-octylnonyl8-[3-[[2-[[2-[3-[[8-(1-octylnonoxy)-8-oxo-octyl]-(6-oxo-6-undecoxy-hexyl)amino]propylamino]-2-oxo-ethyl]-(3-pyrrolidin-1-ylpropanoyl)amino]acetyl]amino]propyl-(6-oxo-6-undecoxy-hexyl)amino]octanoate] the hEPO (Balb/c mice; [3]) was 9.7E+03 and the “pKa (TNS)” value [1] was 7.01.
In the case of `CCCCCCCCCCCOC(=O)CCCCCN(CCCCCCCC(=O)OC(CCCCCCCC)CCCCCCCC)CCNC(=O)/C=C/C(=O)NCCN(CCCCCCCC(=O)OC(CCCCCCCC)CCCCCCCC)CCCCCC(=O)OCCCCCCCCCCC` [Compound 2252, 1-octylnonyl 8-[2-[[(E)-4-[2-[[8-(1-octylnonoxy)-8-oxo-octyl]-(6-oxo-6-undecoxy-hexyl)amino]ethylamino]-4-oxo-but-2enoyl]amino]ethyl-(6-oxo-6-undecoxy-hexyl)amino]octanoate], the hEPO (Balb/c mice; [3]) is reported as 5.6E+05, the hEPO (Balb/c mice; [5]) is reported as 5.62E+05 and the hEPO (Balb/c mice; [4]) is reported as 2.03E+04. For the same compound, the “pKa (TNS)” value [1] was 6.06, the pKa [1, 6] was 6.06 and the pKa [1, 7] was 5.49. The “% EE” value [2] was 70.4%.
With `CCCCCCCCCC(=O)OCCCCCCCN(CCCCCCCC(=O)OC(CCCCCCCC)CCCCCCCC)CCNC(=O)CCC(=O)NCCN(CCCCCCCOC(=O)CCCCCCCCC)CCCCCCCC(=O)OC(CCCCCCCC)CCCCCCCC` [Compound 2272, 7-[2-[[4-[2-[7-decanoyloxyheptyl-[8-(1-octylnonoxy)-8-oxo-octyl]amino]ethylamino]-4-oxo-butanoyl]amino]ethyl-[8-(1-octylnonoxy)-8-oxo-octyl]amino]heptyl decanoate] the hEPO (Balb/c mice; [3]) was 1.8E+06 and the “pKa (TNS)” value [1] was 6.48.
